Measurements from a compilation of properties of binary mixtures (doi:10.1021/je300932n).

Assay: xn = mol fraction of the nth substance listed
Details: 101 kPa

CCCC[n+]1ccn(C)c1.N[C@@H](CC(=O)O)C(=O)[O-] + CO
electrical conductivity [S/m]
Details | 298.15 K | 303.15 K | 308.15 K | 318.15 K
x1 = 0.0099 | 0.82 | 0.89 | 1 | 1.03
x2 = 0.1001 | 0.087 | 0.101 | 0.124 | 0.205
x2 = 0.1999 | 0.093 | – | 0.155 | –
x2 = 0.2999 | – | 0.148 | 0.202 | 0.233
x2 = 0.398 | 0.125 | 0.185 | – | 0.26
x2 = 0.5015 | – | 0.231 | 0.263 | –
x2 = 0.5949 | 0.218 | – | 0.336 | 0.429
x2 = 0.6969 | 0.314 | – | – | 0.64
x2 = 0.7957 | – | 0.75 | 0.83 | –
x2 = 0.8988 | – | 1.22 | 1.28 | –
x2 = 0.9214 | 1.27 | 1.32 | – | 1.48
x2 = 0.9501 | 1.36 | 1.39 | 1.44 | 1.57
x2 = 0.975 | 1.23 | 1.25 | – | 1.39
